Reference: paper PMC8175350, “Drug repurposing screens identify chemical entities for the development of COVID-19 interventions” (Nature Communications, 2021)
“And” between values parts separate entries of the source, which are not always exact repeats. Identical values can stand only once. Like-named read-outs stand apart in the source and are kept apart here.

Key:
SARS-CoV-2 [1] = assay: microbe, parasite or virus in culture; assay type: cell-based; conditions: for %infected: HeLa-ACE2, replicate wells n=1-3
[2] = Uninfected HeLa-ACE2 24 h live/dead cytotoxicity counter screen; assay type: cell-based, human; conditions: human, uninfected HeLa-ACE2 cells, geomean; read-out: uninfected HeLa-ACE2 cytotoxicity CC50
HeLa-ACE2 cells [3] = assay: as above; assay type: cell-based, human; conditions: HeLa-ACE2, replicate wells n=1-3
SARS-CoV-2 [4] = assay: microbe, parasite or virus in culture; assay type: cell-based; conditions: for %infected: Calu-3, replicate wells n=1-3
SARS-CoV-2 [5] = assay: microbe, parasite or virus in culture; assay type: cell-based; conditions: for TOA: HeLa-ACE2, replicate wells n=1-3
HeLa-ACE2 cells [6] = assay: cells; conditions: Homo sapiens, HeLa-ACE2, read-out: cell count in infection assay EC50, HeLa-ACE2, geomean; ^↑ = increasing dose-response curve
Calu-3 cells [7] = assay: cells; conditions: Homo sapiens, Calu-3, read-out: cell count EC50, Calu-3, geomean; ^↑ = increasing dose-response curve
[8] = Uninfected Calu-3 48 h Cell-Titer Glo cytotoxicity counter screen; conditions: human, uninfected Calu-3 cells, cytotoxicity CC50, uninfected Calu-3, geomean
Calu-3 cells [9] = assay: as above; conditions: Calu-3, replicate wells n=1-3

## COc1ccc(C[C@H](N)C(=O)N[C@H]2[C@@H](O)[C@H](n3cnc4c(N(C)C)ncnc43)O[C@@H]2CO)cc1 [Puromycin]
SARS-CoV-2 [1]; HeLa-ACE2, individual values of 9 independent experiments, read-out: EC50 (µM), Fig 1c
  EC50: 0.435 µM and 0.38 µM and 0.598 µM and 0.621 µM and 0.45 µM and 0.531 µM and 0.521 µM and 0.566 µM and 0.31 µM
SARS-CoV-2 [1]; concentration log[M] -5.017
  %infected: -100.174% and -66.1982% and -101.885% and -101.158% and -100.229% and -100.414% and -100.159% and -100.524% and -100%
SARS-CoV-2 [1]; concentration log[M] -5.4942
  %infected: -100.174% and -93.9019% and -89.6683% and -95.454% and -98.8405% and -100.414% and -93.5473% and -100.524% and -98.8065%
SARS-CoV-2 [1]; concentration log[M] -5.9713
  %infected: -100.174% and -98.3678% and -99.6425% and -99.9897% and -99.6057% and -100.414% and -99.8612% and -100.183% and -99.7407%
SARS-CoV-2 [1]; concentration log[M] -6.4484
  %infected: 1.313%
SARS-CoV-2 [1]; Severe acute respiratory syndrome coronavirus 2, HeLa-ACE2, HeLa-ACE2, MOI 0.09, read-out: EC50
  EC50: 0.52 µM
SARS-CoV-2 [1]; Severe acute respiratory syndrome coronavirus 2, HeLa-ACE2, HeLa-ACE2, MOI 0.26, read-out: EC50
  EC50: 0.433 µM
SARS-CoV-2 [1]; Severe acute respiratory syndrome coronavirus 2, HeLa-ACE2, HeLa-ACE2, MOI 0.51, read-out: EC50
  EC50: 0.43 µM
SARS-CoV-2 [1]; Severe acute respiratory syndrome coronavirus 2, HeLa-ACE2, HeLa-ACE2, MOI 1.1, read-out: EC50
  EC50: 0.431 µM
SARS-CoV-2 [1]; Severe acute respiratory syndrome coronavirus 2, HeLa-ACE2, HeLa-ACE2, MOI 2.2, read-out: EC50
  EC50: 0.455 µM
SARS-CoV-2 [1]; Severe acute respiratory syndrome coronavirus 2, HeLa-ACE2, HeLa-ACE2, geomean, read-out: SARS-CoV-2 EC50
  EC50: 0.48 µM
[2]
  CC50 at 24 h: 658 nM
HeLa-ACE2 cells [3]; concentration log[M] -4.39794
  cytotox: -100 (5×) and -99.957 and -100.055 and -99.8917 and -99.5551
HeLa-ACE2 cells [3]; concentration log[M] -4.87506
  cytotox: -100 (5×) and -100.043 and -100.055 and -99.8917 and -99.8888
HeLa-ACE2 cells [3]; concentration log[M] -5.35218
  cytotox: -99.2405 and -100.043 and -100 and -99.7082 and -99.8513 and -99.7143 and -99.834 and -99.8917 and -99.8888
HeLa-ACE2 cells [3]; concentration log[M] -5.8293
  cytotox: -94.5992 and -94.54 and -94.2197 and -97.5201 and -91.5242 and -94.1429 and -95.9602 and -98.5916 and -99.2214
HeLa-ACE2 cells [3]; concentration log[M] -6.30643
  cytotox: -16.5401 and -18.2717 and -10.2395 and -53.9023 and -53.9033 and -44.2857 and -37.078 and -52.3294 and -37.5973
HeLa-ACE2 cells [3]; concentration log[M] -6.78355
  cytotox: -2.194 and 3.482 and 5.615 and -5.9081 and 6.4684 and -6.286 and -2.656 and 2.0585 and 1.78
HeLa-ACE2 cells [3]; concentration log[M] -7.26067
  cytotox: 9.198 and 8.212 and 13.6251 and -16.9949 and 6.9145 and -11.5714 and 1.66 and 4.117 and 13.2369
HeLa-ACE2 cells [3]; concentration log[M] -7.73779
  cytotox: 5.148 and 2.193 and 2.395 and 7.367 and 9.294 and 9.714 and 11.1787 and -1.625 and 6.897
SARS-CoV-2 [4]; concentration log[M] -5
  %infected: -95.8583% and -98.0315% and -98.6862% and -95.9501% and -76.0417% and -82.6326% and -93.9332% and -99.6609% and -93.5404%
SARS-CoV-2 [4]; concentration log[M] -5.47712
  %infected: -67.9332% and -73.9862% and -77.2001% and -69.7882% and -47.5028% and -51.8982% and -50.0755% and -50.9352% and -58.0559%
SARS-CoV-2 [4]; concentration log[M] -5.95424
  %infected: -28.7555% and -23.4276% and -35.8088% and -33.2702% and 12.7351% and -26.1199% and 1.582% and -3.868% and -16.5101%
SARS-CoV-2 [4]; concentration log[M] -6.43136
  %infected: -8.682% and 16.1023% and -10.697% and 2.701% and -30.2762% and -2.034% and 9.733% and 3.624% and 18.0604%
SARS-CoV-2 [4]; concentration log[M] -6.90849
  %infected: 14.8237% and -16.8235% and 10.3561% and -2.261% and -10.1676% and -3.437% and 1.061% and 10.2779% and -14.1014%
SARS-CoV-2 [4]; concentration log[M] -7.38561
  %infected: 9.109% and 11.8626% and -0.1312% and 10.7467% and -22.0858% and 7.736% and -8.662% and -8.078% and 8.576%
SARS-CoV-2 [4]; concentration log[M] -7.86273
  %infected: -4.7462% and 13.3419% and -1.416% and -3.878% and 20.4436% and -1.961% and -6.536% and -8.873% and -15.4821%
SARS-CoV-2 [4]; concentration log[M] -8.33985
  %infected: 2.5816% and -20.6025% and -3.165% and -4.091% and -15.6383% and 9.983% and 19.7898% and 7.961% and 5.366%
SARS-CoV-2 [4]; Severe acute respiratory syndrome coronavirus 2, Calu-3, Calu-3, geomean, read-out: SARS-CoV-2 EC50
  EC50: 2740 nM
SARS-CoV-2 [5]; concentration log[M] -5.017
  TOA: -102.365 and -102.878 and -104.791 and -98.49 and -99.8269 and -99.8889 and -98.5459 and -89.5564 and -100
SARS-CoV-2 [5]; concentration log[M] -5.4942
  TOA: -102.562 and -103.725 and -107.111 and -95.8769 and -99.8786 and -99.7495 and -98.3444 and -97.4941 and -99.8965
SARS-CoV-2 [5]; concentration log[M] -5.9713
  TOA: -102.27 and -103.614 and -103.314 and -96.7138 and -100 (3×) and -98.3433 and -92.9164
SARS-CoV-2 [5]; concentration log[M] -6.4484
  TOA: -6.41 and -22.1743 and -1.526 and -76.305 and -86.1829 and -83.03 and -58.994 and -58.9112 and -89.0793
SARS-CoV-2 [5]; concentration log[M] -6.9255
  TOA: -12.6152 and -14.5357 and 3.304 and -16.4877 and -30.7409 and -13.5207 and -8.881 and -3.253 and -32.0225
SARS-CoV-2 [5]; concentration log[M] -7.4026
  TOA: -1.409 and 2.055 and 2.822 and -9.903 and -4.893 and -5.119 and -5.9163 and -2.505 and -5.006
SARS-CoV-2 [5]; concentration log[M] -7.8798
  TOA: -0.7005 and -1.372 and 4.453 and -4.998 and -0.516 and 2.028 and -14.3841 and -2.585 and -13.6565
SARS-CoV-2 [5]; Severe acute respiratory syndrome coronavirus 2, HeLa-ACE2, fixed 10 hpi, geomean, read-out: CoV-2 TOA EC50
  EC50: 316 nM
HeLa-ACE2 cells [6]
  EC50: 1550 nM
Calu-3 cells [7]
  EC50: > 10000 nM
[8]
  CC50 at 48 h: 3950 nM
Calu-3 cells [9]; concentration log[M] -4.52288
  cytotox: -100.931 and -99.9022 and -95.4488 and -97.7263 and -96.8224 and -101.443 and -97.7214 and -100.308 and -97.0229
Calu-3 cells [9]; concentration log[M] -5
  cytotox: -80.4262 and -81.4732 and -68.7172 and -83.9318 and -82.4069 and -88.2536 and -90.1262 and -91.0255 and -86.7764
Calu-3 cells [9]; concentration log[M] -5.47712
  cytotox: -21.5211 and -21.4754 and -12.3695 and -29.1257 and -36.4975 and -41.3268 and -49.2553 and -54.1555 and -56.8603
Calu-3 cells [9]; concentration log[M] -5.95424
  cytotox: -2.83 and -11.281 and -7.043 and -17.8087 and -13.674 and -31.1214 and -23.8075 and -33.8515 and -29.7354
Calu-3 cells [9]; concentration log[M] -6.43136
  cytotox: 2.078 and 1.682 and 8.441 and -6.555 and 0.06053 and -11.5086 and -12.2093 and -0.8504 and -4.056
Calu-3 cells [9]; concentration log[M] -6.90848
  cytotox: 3.604 and 1.518 and 9.871 and 2.227 and 16.0597 and -0.8904 and 5.168 and 1.586 and 4.2472
Calu-3 cells [9]; concentration log[M] -7.38561
  cytotox: 8.858 and -2.4064 and 3.577 and 15.479 and 1.71 and -0.4894 and 11.4275 and 7.753 and 11.1753
Calu-3 cells [9]; concentration log[M] -7.86273
  cytotox: 1.729 and -14.6095 and -2.223 and 9.032 and 7.858 and -12.5661 and -1.561 and 2.663 and 8.58
